Active and inactive are the calls of the source. The calls are words filed in the database; no cut-off is given here.
Columns and labels:
Osteoblast [1] = assay: Induction of osteoblast differentiation in Zebrafish embryo assessed as upregulation of runx2b gene expression in head measured at 0.75 to 72 hrs post fertilization at 0.05 to 0.3 % by […] analysis; type: functional; settings: Danio rerio, dose 0.05-0.3 %, time 0.75-72 hrs
Danio rerio [2] = species: Danio rerio; assay: Anti-osteoporosis activity in FAC-induced skeletal injury Zebrafish assessed as rescue of skeletal density in caudal fins at 0.1 % measured for 10 day post fertilization; type: functional, organism-based
[3] = Induction of Zebrafish Larva cartilage development assessed as increase in bone mineralization at 0.1 % measured at 6 days post fertilization by Alizarin red staining based assay; type: functional, Danio rerio; settings: time 6 day
[4] = Induction of Zebrafish Larva cartilage development assessed as increase in H1 phenotype ratio at 0.1 % measured after 5 days post fertilization by Alcian blue staining based assay; type: functional, Danio rerio; settings: time 5 day
Danio rerio [5] = species: Danio rerio; assay: Induction of Zebrafish embryo skeletal development assessed as increase in Smad1 gene expression level in spine at 0.1 % measured for 0.75 to 24 hrs post fertilization by ISH analysis; type: functional, tissue-based; settings: time 0.75-24 hrs
Danio rerio [6] = species: Danio rerio; assay: Induction of Zebrafish embryo skeletal development assessed as increase in Bmp4 mRNA expression level in head at 0.1 to 0.3 % measured at 24 hrs post fertilization by ISH analysis; type: functional, tissue-based; settings: dose 0.1-0.3 %
Danio rerio [7] = species: Danio rerio; assay: Anti-osteoporosis activity in FAC-induced skeletal injury Zebrafish assessed as rescue of skeletal density in spine at 0.1 % measured for 10 day post fertilization; type: functional, organism-based
Danio rerio [8] = species: Danio rerio; assay: Induction of Zebrafish embryo skeletal development assessed as increase in Bmp2b mRNA expression level in gastrula stage at 0.05 to 0.1 % measured at 24 hrs post fertilization by ISH analysis; type: functional, tissue-based; settings: dose 0.05-0.1 %
Danio rerio [9] = species: Danio rerio; assay: Suppression of Bmp signaling in Zebrafish embryos assessed as decrease in Bmp4 gene expression level at 0.1 % measured at 26 hrs post fertilization by semiquantitative PCR analysis; type: functional, tissue-based; settings: Embryo
Danio rerio [10] = species: Danio rerio; assay: Anti-osteoporosis activity in FAC-induced skeletal injury Zebrafish larvae assessed as increase in Sox9b mRNA expression level measured for 10 day post fertilization by semiquantitative-PCR analysis; type: functional, organism-based; settings: Larva
Danio rerio [11] = species: Danio rerio; assay: Suppression of Bmp signaling in mCherry Zebrafish embryos assessed as increase in colocalization in tail by measuring fluorescence intensity at 0.1 % measured at 36 hrs post fertilization; type: functional, organism-based; settings: Embryo
[12] = Induction of Zebrafish embryo skeletal development assessed as mortality rate of embryo at 0.03 % measured after 72 hrs post fertilization by Alcian blue staining based assay; type: functional, Danio rerio
Danio rerio [13] = species: Danio rerio; assay: Anti-osteoporosis activity in FAC-induced skeletal injury Zebrafish larvae assessed as increase in BGP mRNA expression level measured for 10 day post fertilization by semiquantitative-PCR analysis; type: functional, organism-based; settings: Larva
Danio rerio [14] = species: Danio rerio; assay: Suppression of Bmp signaling in Zebrafish embryo assessed as reduction in indistinctive tail tissue at 0.1 % measured at 26 hrs post fertilization in presence of dorsomorphin; type: functional; design: scale not given: the % may be the effect or the level left
Danio rerio [15] = species: Danio rerio; assay: Induction of Zebrafish Larva caudal fin regeneration assessed as increase in bone mass measured for 15 days by Calcein staining based assay; type: functional; settings: time 15.0 day
Danio rerio [16] = species: Danio rerio; assay: Induction of Zebrafish embryo skeletal development assessed as increase in Bmp2b mRNA expression level expanded from ventral side to dorsal side at 0.1 to 0.3 % measured at 24 hrs post fertilization by ISH analysis; type: functional, tissue-based; settings: dose 0.1-0.3 %
Danio rerio [17] = species: Danio rerio; assay: Anti-osteoporosis activity in FAC-induced skeletal injury Zebrafish larvae assessed as increase in Sox9a mRNA expression level measured for 10 day post fertilization by semiquantitative-PCR analysis; type: functional, organism-based; settings: Larva
[18] = Induction of Zebrafish Larva cartilage development assessed as increase in H2 phenotype ratio at 0.3 % measured after 5 days post fertilization by Alcian blue staining based assay; type: functional, Danio rerio; settings: time 5 day
Osteoblast [19] = assay: Induction of osteoblast differentiation in transgenic osx mCherry Zebrafish embryo assessed as increase in Col10a1a mRNA expression in fin at 0.1 % measured after 15 days by semiquantitative PCR analysis; type: functional; settings: Danio rerio, time 15.0 day
Danio rerio [20] = species: Danio rerio; assay: Induction of Zebrafish embryo skeletal development assessed as increase in Bmp4 mRNA expression level in gastrula stage at 0.05 to 0.1 % measured at 24 hrs post fertilization by ISH analysis; type: functional, tissue-based; settings: dose 0.05-0.1 %
Danio rerio [21] = species: Danio rerio; assay: Anti-osteoporosis activity in FAC-induced skeletal injury Zebrafish larvae assessed as rescue of bone damage measured for 10 day post fertilization by Alizarin red staining based assay; type: functional, organism-based; settings: Larva
Osteoblast [22] = assay: Induction of osteoblast differentiation in transgenic osx mCherry Zebrafish embryo assessed as increase in Sox9b mRNA expression in fin at 0.1 % measured after 15 days by semiquantitative PCR analysis; type: functional, tissue-based; settings: Danio rerio, time 15.0 day
Danio rerio [23] = species: Danio rerio; assay: Suppression of Bmp signaling in Zebrafish tBr injected mRNA embryos assessed as reduction in slight loss of tail tissue at 2.5 uM measured at 26 hrs post fertilization; type: functional, Embryo; design: scale not given: the % may be the effect or the level left
[24] = Induction of Zebrafish embryo skeletal development assessed as mortality rate of embryo at 0.5 % measured after 72 hrs post fertilization by Alcian blue staining based assay; type: functional, Danio rerio
Danio rerio [25] = species: Danio rerio; assay: Induction of Zebrafish embryo skeletal development assessed as upregulation of col10a1a gene expression in head bone at 0.01 to 0.3 % measured after 72 hrs post fertilization by […] analysis; type: functional, tissue-based; settings: dose 0.01-0.3 %
Danio rerio [26] = species: Danio rerio; assay: Anti-osteoporosis activity in FAC-induced skeletal injury Zebrafish larvae assessed as increase in Col10a1a mRNA expression level measured for 10 day post fertilization by semiquantitative-PCR analysis; type: functional, organism-based; settings: Larva
Danio rerio [27] = species: Danio rerio; assay: Induction of Zebrafish embryo skeletal development assessed as increase in Bmp2b mRNA expression level in head at 0.1 % measured at 72 hrs post fertilization; type: functional, tissue-based
Danio rerio [28] = species: Danio rerio; assay: Induction of Zebrafish embryo skeletal development assessed as upregulation of col10a1a gene expression in palatoquadrate at 0.01 to 0.3 % measured after 72 hrs post fertilization by […] analysis; type: functional, tissue-based; settings: dose 0.01-0.3 %
[29] = Induction of Zebrafish Larva cartilage development assessed as increase in H3 phenotype ratio at 0.05 % measured after 5 days post fertilization by Alcian blue staining based assay; type: functional, Danio rerio; settings: time 5 day
Danio rerio [30] = species: Danio rerio; assay: Anti-osteoporosis activity in FAC-induced skeletal injury Zebrafish larvae assessed as increase in Col1a2 mRNA expression level measured for 10 day post fertilization by semiquantitative-PCR analysis; type: functional, organism-based; settings: Larva
Danio rerio [31] = species: Danio rerio; assay: Suppression of Bmp signaling in Zebrafish embryos assessed as decrease in Sox9a gene expression level at 0.1 % measured at 26 hrs post fertilization by semiquantitative PCR analysis; type: functional, tissue-based; settings: Embryo
Danio rerio [32] = species: Danio rerio; assay: Anti-osteoporosis activity in FAC-induced skeletal injury Zebrafish assessed as increase in cumulative bone optical density in spine at 0.1 % measured for 10 day post fertilization; type: functional, organism-based
Danio rerio [33] = species: Danio rerio; assay: Suppression of Bmp signaling in Zebrafish embryos assessed as decrease in Col10a1a gene expression level at 0.1 % measured at 26 hrs post fertilization by semiquantitative PCR analysis; type: functional, tissue-based; settings: Embryo
Danio rerio [34] = species: Danio rerio; assay: Induction of Zebrafish Larva cartilage development assessed as increase in bone mineralization at 0.05 to 0.3 % measured at 6 days post fertilization by Alizarin red staining based assay; type: functional; settings: dose 0.05-0.3 %, time 6.0 day
Danio rerio [35] = species: Danio rerio; assay: Induction of Zebrafish embryo skeletal development assessed as nuclear localization of p-Smad5 in tail at 0.1 % measured at 24 to 72 hrs post fertilization by DAPI staining based analysis; type: functional, tissue-based; settings: time 24-72 hrs

For `Cl.N[C@@H]1[C@@H](O)[C@H](O)[C@@H](CO)O[C@H]1O`, the Activity (Osteoblast [1]) was “Active”, the Activity (Danio rerio [2]) was “Active” and the Activity [3] was 88%. The Activity [4] was 40%, the Activity (Danio rerio [5]) was “Active” and the Activity (Danio rerio [6]) was “Active”. For the same compound, the Activity (Danio rerio [7]) was “Active”, the Activity (Danio rerio [8]) was “Active” and the Activity (Danio rerio [9]) was “Active”. For the same compound, the Activity (Danio rerio [10]) was “Active”, the Activity (Danio rerio [11]) was “Active” and the Activity [12] was 16%. For the same compound, the Activity (Danio rerio [13]) was “Active”, the Activity (Danio rerio [14]) was 20% and the Activity (Danio rerio [15]) was “Active”. For the same compound, the Activity (Danio rerio [16]) was “Active”, the Activity (Danio rerio [17]) was “Active” and the Activity [18] was 50%. For the same compound, the Activity (Osteoblast [19]) was “Active”, the Activity (Danio rerio [20]) was “Active” and the Activity (Danio rerio [21]) was “Active”. The Activity (Osteoblast [22]) was “Active”, the Activity (Danio rerio [23]) was 80% and the Activity [24] was 100%. The Activity (Danio rerio [25]) was “Active”, the Activity (Danio rerio [26]) was “Active” and the Activity (Danio rerio [27]) was “Active”. The Activity (Danio rerio [28]) was “Active”, the Activity [29] was 40% and the Activity (Danio rerio [30]) was “Active”. The Activity (Danio rerio [31]) was “Active”, the Activity (Danio rerio [32]) was “Active” and the Activity (Danio rerio [33]) was “Active”. The Activity (Danio rerio [34]) was “Active” and the Activity (Danio rerio [35]) was “Active”.
